Key:
Type in all cases: in vivo
radish sprouts [1] = assay: L-tyrosine or L-phenylalanine addition effect 1, radish sprouts; conditions: for effect on the quercetin content / kaempferol content: 21 vol% oxygen; for kaempferol content: aqueous solution 25-400 mg/L, 10 ml/day for 7 days, dark
Experimental: (§1) The amount of kaempferol and quercetin was measured after all of the glycosides of kaempferol and quercetin were hydrolyzed and converted into aglycones. The actual procedure was as follows. After each sample was milled, 2.0 g of the milled product was weighed. After 40 mL of 70% ethanol was added, the sample was suspended with a Polytron homogenizer at room temperature at 20.000 rpm for 1 minute. 1 mL of the suspension was dispensed and weighed into a glass test tube, and 1 mL of 2 N hydrochloric acid was added. After being mixed with a vortex, the mixture was heated at 100° C. for 30 minutes with a heat block. After heating was completed, the resulting product was cooled with ice for at least 5 minutes. After cooling, 5 mL of hexane was added, and the mixture was shaken horizontally 20 times. After centrifugation at 3.000 rpm for 5 minutes at 4° C. with a cooled centrifuge, the upper layer was discarded. 5 mL of ethyl acetate was added, and the mixture was shaken horizontally with a shaker at room temperature at 250 rpm for 10 minutes. After centrifugation with a large cooled centrifuge at 4° C. at 3.000 rpm for 5 minutes, the upper layer was collected in a glass test tube for drying. 5 mL of ethyl acetate was added again to the lower layer, and the mixture was shaken horizontally with a shaker at room temperature at 250 rpm for 10 minutes. After centrifugation at 3.000 rpm at 4° C. for 5 minutes, the upper layer was collected in a glass test tube for drying. The collected upper layer was dried with nitrogen at 60° C. with a nitrogen spray dryer. After drying was complete, 1 mL of an aqueous solution of 70% ethanol was added, and the mixture was treated with an ultrasonic generator for 1 minute to dissolve it with a vortex. After being passed through a 0.45-µm filter, the solution was subjected to HPLC to perform KMP aglycone analysis, thereby determining the amount of KMP aglycones.
(§2) Aqueous solutions containing L-phenylalanine in a concentration of 25, 50, 100, 200, or 400 mg/L, aqueous solutions containing L-tyrosine in a concentration of 25, 50, 100, 200, or 400 mg/L, and aqueous solutions containing both L-tyrosine and L-phenylalanine in a concentration of 25, 50, 100, 200, or 400 mg/L were prepared. As test plants, radish sprouts and broccoli sprouts were prepared. The test plants were given one of the aqueous solutions in an amount of 10 ml/day for 7 days and grown in the dark in an oxygen concentration of 21 vol%. After 7 days, the content of kaempferol and quercetin was measured for each test plant in the same manner as in section B1-2 above. […] Additionally, quercetin was not detected in broccoli sprouts regardless of the addition of L-tyrosine and L-phenylalanine.

radish sprouts [2] = assay: L-tyrosine or L-phenylalanine addition effect 2, radish sprouts at 21 or 17.5 vol% oxygen; conditions: 25 or 50 mg/L, 7 days; for kaempferol content: in every oxygen concentration (21 or 17.5 vol%); for rate of increase in the kaempferol content: low-oxygen concentration (17.5 vol%)
Experimental: as §1
Aqueous solutions containing L-phenylalanine in a concentration of 25 or 50 mg/L, and aqueous solutions containing L-tyrosine in a concentration of 25 or 50 mg/L were prepared. As a test plant, radish sprouts were prepared. The test plant was given one of the aqueous solution in an amount of 10 ml/day for 7 days and grown in the dark in an oxygen concentration of 21 vol% or 17.5 vol%. After 7 days, the content of kaempferol and quercetin was measured in the same manner as in section B1-2 above.

broccoli sprouts = assay: L-tyrosine or L-phenylalanine addition effect 1, broccoli sprouts; conditions: for kaempferol content: aqueous solution 25-400 mg/L, 10 ml/day for 7 days, dark; for kaempferol content / quercetin content: 21 vol% oxygen; for quercetin content: regardless of the addition
Experimental: as §1, §2

Row | SMILES | effect on the quercetin content (radish sprouts [1]; 25-400 mg/L, 7 days) | kaempferol content (radish sprouts [1]) | kaempferol content (radish sprouts [2]) | rate of increase in the kaempferol content (radish sprouts [2]) | kaempferol content (broccoli sprouts) | quercetin content (broccoli sprouts; 7 days) | effect on plant growth (total length and weight) (radish sprouts [1]; 25-400 mg/L, 7 days) | effect on plant growth (total length and weight) (radish sprouts [2]; 21 or 17.5 vol% oxygen) | effect on plant growth (total length and weight) (broccoli sprouts; 25-400 mg/L, 7 days)
1 | N[C@@H](Cc1ccccc1)C(=O)O [L-phenylalanine] | no significant effect | increased | increased | significantly increased | increased | not detected |  |  | 
2 | N[C@@H](Cc1ccc(O)cc1)C(=O)O [L-tyrosine] | no significant effect | increased | increased | significantly increased | increased | not detected | no clear effect | no clear effect | no clear effect

From patent publication US20230321030A1, “KAEMPFEROL AGLYCONE-CONTAINING EXTRACT” (OTSUKA PHARMACEUTICAL CO., LTD., priority 2020, published 2023)
